Assay results from PMC10299677, “Fluorinated Benzofuran and Dihydrobenzofuran as Anti-Inflammatory and Potential Anticancer Agents” (International Journal of Molecular Sciences, 2023).

Experiment: Toxicity on macrophages (BMDM), WST-1 assay
Format: cell-based, C57BL/6J mice
Details: C57BL/6J, mouse, bone marrow-derived macrophages (BMDM), read-out: macrophage viability
Protocol: WST-1 assay (Sigma-Aldrich, 5015944001) was used to determine the toxicity of the synthesized compounds on BMDM and HCT116 (ATCC, CCL-247), kindly provided by Dr. Nadine Darwiche, Department of Biochemistry and Molecular Genetics, American University of Beirut, Lebanon. Briefly, macrophages (50,000 cells per well) and HCT116 (20,000 cells per well) were plated in a 96-well plate in RPMI 1640 culture medium containing 10% fetal bovine serum (FBS) and grown for 24 h. Cells (in triplicates) were treated with 10 or 50 μM of the compounds for macrophages, and 50 or 100 μM for HCT116. Culture medium without cells and cells without treatment were used as basal and maximal activity, respectively. Results were expressed as percentage of cells without treatment.
F i g u re S1: E ff e c t of fluorin at ed benzofuran derivatives on m acrophages
viabilit y. C ells in cub at ed with 10 and 50 μM of benzofuran d eri vativ es
(compounds 1 to 9) bel onging to groups І, II, III and IV for 24 hours. Cell
viabilit y w as det ermin ed by WST-1 assay. Non-t r eated m acrophages wer e used
as cont rol. Results were shown as mean ± SEM (n=3) . *p< 0.05 comp ar ed to the
vehicle –treated cells (basal), one-way ANOVA followed by Dunnett’s test.
(1 picture or pasted object on this page, not shown here)

## COC(=O)/C=C1/Oc2ccc(Br)cc2C1(F)F [Compound 1]
  viability at 24 h, 50 µM: 50%
